# From the supplement of paper PMC10307832
# Tests used:
# Experiment in all cases: relative viability (nuclei count vs DMSO), 5 days (fraction); higher = more cells survive
# COR-L 105 = system: COR-L 105
# In short: (§1)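 Lung cancer cell lines, seeded in 1536-well plates, were treated the following day by pin tool with a single drug or with five library-drug doses (not always all listed) in √10 steps on top of a fixed anchor-drug dose. Cells were fixed and nuclei stained in one step after 5 days, and nuclei were counted. Relative viability is the nuclei count for treated wells divided by that for vehicle wells, reported as medians of duplicate plates.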
# ChaGo-K-1 = system: ChaGo-K-1
# In short: as §1
# 201T = system: 201T
# In short: as §1
# NCI-H322M = system: NCI-H322M
# In short: as §1
# NCI-H2126 = system: NCI-H2126
# In short: as §1
# NCI-H2347 = system: NCI-H2347
# In short: as §1
# EPLC-272H = system: EPLC-272H
# In short: as §1
# LCLC-97TM1 = system: LCLC-97TM1
# In short: as §1
# PC-14 = system: PC-14
# In short: as §1
# RERF-LC-KJ = system: RERF-LC-KJ
# In short: as §1
# HCC-78 = system: HCC-78
# In short: as §1
# NCI-H647 = system: NCI-H647
# In short: as §1
# NCI-H520 = system: NCI-H520
# In short: as §1
# NCI-H1666 = system: NCI-H1666
# In short: as §1
# NCI-H23 = system: NCI-H23
# In short: as §1
# NCI-H2087 = system: NCI-H2087
# In short: as §1
# LC-2-ad = system: LC-2-ad
# In short: as §1
# HCC-827 = system: HCC-827
# In short: as §1
# NCI-H1915 = system: NCI-H1915
# In short: as §1
# NCI-H661 = system: NCI-H661
# In short: as §1
# NCI-H2405 = system: NCI-H2405
# In short: as §1
# NCI-H650 = system: NCI-H650
# In short: as §1
# H3255 = system: H3255
# In short: as §1
smiles,measurement,setting,value
O=C(O)c1ccc(-c2c[nH]c3ncc(-c4ccccc4)cc23)cc1C1CCCC1 + Nc1nc2[nH]cc(CCc3ccc(C(=O)N[C@@H](CCC(=O)O)C(=O)O)cc3)c2c(=O)[nH]1 [Pemetrexed] (partner 0.2 µM),relative viability,COR-L 105; first compound 0.04 µM,1.06
same,relative viability,COR-L 105; first compound 0.1265 µM,1.19
same,relative viability,COR-L 105; first compound 0.4 µM,1.19
same,relative viability,COR-L 105; first compound 1.265 µM,1.08
same,relative viability,ChaGo-K-1; first compound 0.04 µM,0.249
same,relative viability,ChaGo-K-1; first compound 0.1265 µM,0.255
same,relative viability,ChaGo-K-1; first compound 0.4 µM,0.265
same,relative viability,ChaGo-K-1; first compound 1.265 µM,0.264
same,relative viability,201T; first compound 0.04 µM,0.342
same,relative viability,201T; first compound 0.1265 µM,0.326
same,relative viability,201T; first compound 0.4 µM,0.357
same,relative viability,201T; first compound 1.265 µM,0.343
same,relative viability,NCI-H322M; first compound 0.04 µM,0.632
same,relative viability,NCI-H322M; first compound 0.1265 µM,0.586
same,relative viability,NCI-H322M; first compound 0.4 µM,0.589
same,relative viability,NCI-H322M; first compound 1.265 µM,0.547
same,relative viability,NCI-H2126; first compound 0.04 µM,0.741
same,relative viability,NCI-H2126; first compound 0.1265 µM,0.66
same,relative viability,NCI-H2126; first compound 0.4 µM,0.707
same,relative viability,NCI-H2126; first compound 1.265 µM,0.666
same,relative viability,NCI-H2347; first compound 0.04 µM,0.435
same,relative viability,NCI-H2347; first compound 0.1265 µM,0.453
same,relative viability,NCI-H2347; first compound 0.4 µM,0.454
same,relative viability,NCI-H2347; first compound 1.265 µM,0.398
same,relative viability,EPLC-272H; first compound 0.04 µM,0.369
same,relative viability,EPLC-272H; first compound 0.1265 µM,0.336
same,relative viability,EPLC-272H; first compound 0.4 µM,0.279
same,relative viability,EPLC-272H; first compound 1.265 µM,0.251
same,relative viability,LCLC-97TM1; first compound 0.04 µM,0.196
same,relative viability,LCLC-97TM1; first compound 0.1265 µM,0.204
same,relative viability,LCLC-97TM1; first compound 0.4 µM,0.157
same,relative viability,LCLC-97TM1; first compound 1.265 µM,0.153
same,relative viability,PC-14; first compound 0.04 µM,0.135
same,relative viability,PC-14; first compound 0.1265 µM,0.143
same,relative viability,PC-14; first compound 0.4 µM,0.145
same,relative viability,PC-14; first compound 1.265 µM,0.125
same,relative viability,RERF-LC-KJ; first compound 0.04 µM,0.466
same,relative viability,RERF-LC-KJ; first compound 0.1265 µM,0.469
same,relative viability,RERF-LC-KJ; first compound 0.4 µM,0.481
same,relative viability,RERF-LC-KJ; first compound 1.265 µM,0.481
same,relative viability,HCC-78; first compound 0.1265 µM,0.919
same,relative viability,HCC-78; first compound 0.4 µM,0.881
same,relative viability,HCC-78; first compound 1.265 µM,0.962
same,relative viability,NCI-H647; first compound 0.04 µM,0.165
same,relative viability,NCI-H647; first compound 0.1265 µM,0.171
same,relative viability,NCI-H647; first compound 0.4 µM,0.182
same,relative viability,NCI-H647; first compound 1.265 µM,0.148
same,relative viability,NCI-H520; first compound 0.04 µM,0.789
same,relative viability,NCI-H520; first compound 0.1265 µM,0.633
same,relative viability,NCI-H520; first compound 0.4 µM,0.655
same,relative viability,NCI-H520; first compound 1.265 µM,0.474
same,relative viability,NCI-H1666; first compound 0.04 µM,0.753
same,relative viability,NCI-H1666; first compound 0.1265 µM,0.917
same,relative viability,NCI-H1666; first compound 0.4 µM,0.879
same,relative viability,NCI-H1666; first compound 1.265 µM,0.809
same,relative viability,NCI-H23; first compound 0.04 µM,0.756
same,relative viability,NCI-H23; first compound 0.1265 µM,0.885
same,relative viability,NCI-H23; first compound 0.4 µM,0.683
same,relative viability,NCI-H23; first compound 1.265 µM,0.66
same,relative viability,NCI-H2087; first compound 0.04 µM,0.576
same,relative viability,NCI-H2087; first compound 0.1265 µM,0.652
same,relative viability,NCI-H2087; first compound 0.4 µM,0.653
same,relative viability,NCI-H2087; first compound 1.265 µM,0.585
same,relative viability,LC-2-ad; first compound 0.04 µM,0.302
same,relative viability,LC-2-ad; first compound 0.1265 µM,0.272
same,relative viability,LC-2-ad; first compound 0.4 µM,0.278
same,relative viability,LC-2-ad; first compound 1.265 µM,0.261
same,relative viability,HCC-827; first compound 0.04 µM,0.198
same,relative viability,HCC-827; first compound 0.1265 µM,0.28
same,relative viability,HCC-827; first compound 0.4 µM,0.287
same,relative viability,HCC-827; first compound 1.265 µM,0.163
same,relative viability,NCI-H1915; first compound 0.04 µM,0.493
same,relative viability,NCI-H1915; first compound 0.1265 µM,0.454
same,relative viability,NCI-H1915; first compound 0.4 µM,0.481
same,relative viability,NCI-H1915; first compound 1.265 µM,0.448
same,relative viability,NCI-H661; first compound 0.04 µM,0.881
same,relative viability,NCI-H661; first compound 0.1265 µM,0.918
same,relative viability,NCI-H661; first compound 0.4 µM,0.92
same,relative viability,NCI-H661; first compound 1.265 µM,0.892
same,relative viability,NCI-H2405; first compound 0.04 µM,1.05
same,relative viability,NCI-H2405; first compound 0.1265 µM,1.15
same,relative viability,NCI-H2405; first compound 0.4 µM,0.959
same,relative viability,NCI-H2405; first compound 1.265 µM,0.648
same,relative viability,NCI-H650; first compound 0.04 µM,0.941
same,relative viability,NCI-H650; first compound 0.1265 µM,0.975
same,relative viability,NCI-H650; first compound 0.4 µM,0.873
same,relative viability,NCI-H650; first compound 1.265 µM,0.782
same,relative viability,H3255; first compound 0.04 µM,0.485
same,relative viability,H3255; first compound 0.1265 µM,0.58
same,relative viability,H3255; first compound 0.4 µM,0.622
same,relative viability,H3255; first compound 1.265 µM,0.582
